# Source: US10670605B2, “Cysteine reactive probes and uses thereof” (The Scripps Research Institute, priority 2015, dated 2020)
# How the values were obtained:
# RRAGC C358 (Q9HB90) = RRAGC C358 (Q9HB90) (Homo sapiens, UniProt Q9HB90); assay: Competitive isoTOP-ABPP, cell lysates; assay type: binding; conditions: for isoTOP-ABPP reactivity ratio, Q9HB90_C358: in-vitro_ramos_231; for isoTOP-ABPP ratio, Q9HB90_C358: 500 μM, invitro, 231
# [1] = target: T1, cysteines in MDA-MB-231 and Ramos cells (Homo sapiens, UniProt Q13158); assay: Competitive isoTOP-ABPP in situ (fragment-treated cells); assay type: cell-based; conditions: 200 μM, insitu
# T1 sequence (Q13158 1-208): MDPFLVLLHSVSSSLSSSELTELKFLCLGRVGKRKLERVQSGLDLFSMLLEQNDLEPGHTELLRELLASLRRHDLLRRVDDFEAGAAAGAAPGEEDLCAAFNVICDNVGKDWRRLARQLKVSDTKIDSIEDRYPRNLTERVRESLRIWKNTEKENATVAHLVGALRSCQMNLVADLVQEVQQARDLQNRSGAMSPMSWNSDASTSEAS
# [2] = target: T2, cysteines in MDA-MB-231 and Ramos cells (Homo sapiens, UniProt Q9Y5Y2); assay: as above; assay type: cell-based
# T2 sequence (Q9Y5Y2 1-271): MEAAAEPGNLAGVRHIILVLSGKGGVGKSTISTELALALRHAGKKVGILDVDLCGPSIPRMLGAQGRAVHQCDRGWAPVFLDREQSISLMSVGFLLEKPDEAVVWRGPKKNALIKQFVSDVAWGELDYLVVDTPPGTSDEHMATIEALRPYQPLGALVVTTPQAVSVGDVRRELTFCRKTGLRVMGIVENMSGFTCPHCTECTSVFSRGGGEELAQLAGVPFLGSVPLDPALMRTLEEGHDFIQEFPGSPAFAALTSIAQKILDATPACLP
# IRF8 C306 (Q02556) = target: T3, IRF8 C306 (Q02556) (Homo sapiens, UniProt Q02556); assay: Competitive isoTOP-ABPP, cell lysates; assay type: binding; conditions: for isoTOP-ABPP ratio, Q02556_C306: 500 μM, invitro, ramos; for isoTOP-ABPP ratio (reactivity profile), Q02556_C306: 500 μm in-vitro ramos
# T3 sequence (Q02556 1-426): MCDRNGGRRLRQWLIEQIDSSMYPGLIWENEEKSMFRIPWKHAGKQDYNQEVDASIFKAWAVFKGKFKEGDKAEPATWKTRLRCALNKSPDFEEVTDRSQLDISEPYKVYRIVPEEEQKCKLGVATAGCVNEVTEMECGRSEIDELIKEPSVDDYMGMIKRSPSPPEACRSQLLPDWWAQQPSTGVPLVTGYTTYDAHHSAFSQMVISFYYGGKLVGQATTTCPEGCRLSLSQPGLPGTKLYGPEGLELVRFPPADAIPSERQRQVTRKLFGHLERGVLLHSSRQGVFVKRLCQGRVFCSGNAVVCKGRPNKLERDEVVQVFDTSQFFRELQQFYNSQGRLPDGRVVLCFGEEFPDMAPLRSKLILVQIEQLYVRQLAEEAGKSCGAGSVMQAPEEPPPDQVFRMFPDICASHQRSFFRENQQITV
# [3] = target: cysteines in MDA-MB-231 and Ramos cells (Homo sapiens, UniProt P45984); assay: Competitive isoTOP-ABPP in situ (fragment-treated cells); assay type: cell-based
# Chain of cysteines in MDA-MB-231 and Ramos cells (Homo sapiens, UniProt P45984) (P45984 whole entry, the tested form may be a part): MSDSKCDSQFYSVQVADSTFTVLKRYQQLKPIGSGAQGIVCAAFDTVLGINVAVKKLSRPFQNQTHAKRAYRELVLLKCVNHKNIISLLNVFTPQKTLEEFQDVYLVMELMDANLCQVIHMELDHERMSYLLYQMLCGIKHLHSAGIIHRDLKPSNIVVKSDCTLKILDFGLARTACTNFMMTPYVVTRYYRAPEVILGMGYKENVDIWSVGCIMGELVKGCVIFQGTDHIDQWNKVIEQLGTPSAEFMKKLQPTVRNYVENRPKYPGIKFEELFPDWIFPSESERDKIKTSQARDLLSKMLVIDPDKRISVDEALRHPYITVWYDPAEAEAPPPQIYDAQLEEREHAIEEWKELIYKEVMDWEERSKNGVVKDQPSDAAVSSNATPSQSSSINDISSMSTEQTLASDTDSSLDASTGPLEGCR
# [4] = target: cysteines in MDA-MB-231 and Ramos cells (Homo sapiens, UniProt Q8NBS9); assay: as above; assay type: cell-based
# Chain of cysteines in MDA-MB-231 and Ramos cells (Homo sapiens, UniProt Q8NBS9) (Q8NBS9 33-432): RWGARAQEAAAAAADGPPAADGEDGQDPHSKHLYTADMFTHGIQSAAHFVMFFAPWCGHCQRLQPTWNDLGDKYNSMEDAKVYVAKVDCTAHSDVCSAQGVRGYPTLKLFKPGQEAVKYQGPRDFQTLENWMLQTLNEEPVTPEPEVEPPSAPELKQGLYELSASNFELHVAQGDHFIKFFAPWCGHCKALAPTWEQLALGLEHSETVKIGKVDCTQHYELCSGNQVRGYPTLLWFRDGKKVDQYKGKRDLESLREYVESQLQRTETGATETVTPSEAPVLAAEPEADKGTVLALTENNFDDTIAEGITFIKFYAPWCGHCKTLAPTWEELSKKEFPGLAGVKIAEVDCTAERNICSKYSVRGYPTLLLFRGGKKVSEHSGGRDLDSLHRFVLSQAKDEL
# [5] = target: cysteines in MDA-MB-231 and Ramos cells (Homo sapiens, UniProt Q96RP9); assay: as above; assay type: cell-based; conditions: 200 μM, insitu
# Chain of cysteines in MDA-MB-231 and Ramos cells (Homo sapiens, UniProt Q96RP9) (Q96RP9 37-751): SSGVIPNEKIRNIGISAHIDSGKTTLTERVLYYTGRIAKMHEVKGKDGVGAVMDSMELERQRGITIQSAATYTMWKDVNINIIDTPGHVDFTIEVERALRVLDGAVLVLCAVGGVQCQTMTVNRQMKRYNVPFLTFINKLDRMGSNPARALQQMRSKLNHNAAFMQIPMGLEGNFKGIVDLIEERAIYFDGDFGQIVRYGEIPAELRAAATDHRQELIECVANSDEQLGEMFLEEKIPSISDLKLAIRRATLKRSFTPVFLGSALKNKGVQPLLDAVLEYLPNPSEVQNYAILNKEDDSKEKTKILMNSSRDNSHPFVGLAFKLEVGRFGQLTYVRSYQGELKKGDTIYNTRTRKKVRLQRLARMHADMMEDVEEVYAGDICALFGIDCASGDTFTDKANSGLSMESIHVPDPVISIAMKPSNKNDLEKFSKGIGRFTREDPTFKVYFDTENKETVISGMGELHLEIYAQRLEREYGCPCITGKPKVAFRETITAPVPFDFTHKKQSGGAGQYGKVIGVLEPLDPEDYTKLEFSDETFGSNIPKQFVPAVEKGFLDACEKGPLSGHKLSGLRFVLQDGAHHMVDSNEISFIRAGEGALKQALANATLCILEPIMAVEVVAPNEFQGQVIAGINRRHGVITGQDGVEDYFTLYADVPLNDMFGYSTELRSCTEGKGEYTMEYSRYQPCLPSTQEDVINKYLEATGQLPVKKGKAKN
# [6] = target: T4, cysteines in MDA-MB-231 and Ramos cells (Homo sapiens, UniProt Q9NWA0); assay: as above; assay type: cell-based; conditions: 200 μM, insitu; for isoTOP-ABPP ratio, cysteine Q9NWA0_C139: 231
# T4 sequence (Q9NWA0 1-146): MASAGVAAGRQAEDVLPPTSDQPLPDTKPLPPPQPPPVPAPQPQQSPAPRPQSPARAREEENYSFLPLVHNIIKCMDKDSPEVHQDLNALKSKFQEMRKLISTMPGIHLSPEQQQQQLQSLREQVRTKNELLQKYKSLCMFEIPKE
# Chain of RRAGC C358 (Q9HB90) (Q9HB90 2-399 limits assumed): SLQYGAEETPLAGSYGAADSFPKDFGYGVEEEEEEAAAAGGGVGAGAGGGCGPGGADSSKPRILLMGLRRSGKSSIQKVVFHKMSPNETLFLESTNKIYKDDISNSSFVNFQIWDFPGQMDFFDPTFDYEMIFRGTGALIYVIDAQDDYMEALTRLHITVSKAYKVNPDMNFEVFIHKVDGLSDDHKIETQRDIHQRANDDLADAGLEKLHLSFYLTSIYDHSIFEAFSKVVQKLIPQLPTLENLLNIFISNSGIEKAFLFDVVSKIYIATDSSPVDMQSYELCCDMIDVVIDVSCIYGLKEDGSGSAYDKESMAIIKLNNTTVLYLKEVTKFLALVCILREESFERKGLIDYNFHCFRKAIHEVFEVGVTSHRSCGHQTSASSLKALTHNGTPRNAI
# Chain of RRAGC C358 (Q9HB90) (Q7L523 whole entry partner, the tested form may be a part): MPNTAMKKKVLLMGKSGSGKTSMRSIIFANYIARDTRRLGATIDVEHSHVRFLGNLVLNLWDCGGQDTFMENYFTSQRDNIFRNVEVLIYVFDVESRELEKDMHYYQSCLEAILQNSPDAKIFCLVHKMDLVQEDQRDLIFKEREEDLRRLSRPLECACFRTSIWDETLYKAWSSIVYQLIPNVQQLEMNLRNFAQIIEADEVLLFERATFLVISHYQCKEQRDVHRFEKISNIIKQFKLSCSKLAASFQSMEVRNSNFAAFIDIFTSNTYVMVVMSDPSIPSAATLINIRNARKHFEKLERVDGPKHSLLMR
structure (smiles),measurement,setting,value
C=CC(=O)N1CCC(Cc2ccccc2)CC1 [compound 53],"isoTOP-ABPP reactivity profile ratio, Q9HB90_C358","RRAGC C358 (Q9HB90); 500 μm, in-vitro_ramos",0.6
C=CC(=O)Nc1cc(F)c(N2CCN(C(=O)OC(C)(C)C)CC2)c(F)c1 [compound 38],isoTOP-ABPP ratio Q13158_C98,[1]; 231,1.5
same,isoTOP-ABPP ratio Q9Y5Y2_C72,"[2]; 200 μM, insitu, 231",1.7
same,"isoTOP-ABPP reactivity ratio, Q9HB90_C358",RRAGC C358 (Q9HB90); 500 μm,1.1
C=CC(=O)Nc1cc(C)c(Br)cc1C [compound 40],"isoTOP-ABPP reactivity ratio, Q02556_C306","IRF8 C306 (Q02556); 500 μm, in-vitro_ramos",0.9
O=C(CCl)NC(=O)NC12CC3CC(CC(C3)C1)C2 [compound 12],isoTOP-ABPP ratio P45984_C177,"[3]; 200 μM, insitu, 231",2.1
same,isoTOP-ABPP ratio Q8NBS9_C350,"[4]; 200 μM, insitu, 231",9.4
same,"isoTOP-ABPP ratio, cysteine Q96RP9_C153",[5]; 231,20.0
same,"isoTOP-ABPP ratio, cysteine Q9NWA0_C139",[6],20.0
C=CC(=O)N(Cc1cccnc1)c1cc(C(F)(F)F)cc(C(F)(F)F)c1 [compound 31],isoTOP-ABPP ratio Q13158_C98,[1]; 231,0.9
same,isoTOP-ABPP ratio Q8NBS9_C350,"[4]; 200 μM, insitu, 231",0.8
same,"isoTOP-ABPP reactivity ratio, Q9HB90_C358",RRAGC C358 (Q9HB90); 500 μm,2.3
Cn1cc(S(=O)(=O)N2CCOCC2)cc1C(=O)NC(=O)CCl [compound 11],isoTOP-ABPP ratio P45984_C177,[3]; 100 μM in situ 231,0.9
same,isoTOP-ABPP ratio Q8NBS9_C350,[4]; 100 μM in situ 231,3.4
same,"isoTOP-ABPP ratio, cysteine Q9Y5Y2_C72",[2]; 100 μM in situ 231,0.5
same,"isoTOP-ABPP ratio, Q02556_C306",IRF8 C306 (Q02556),3.1
O=C(CCl)NCCc1c[nH]c2ccccc12 [compound 13],"isoTOP-ABPP ratio, cysteine Q13158_C98",[1]; 231,1.6
same,isoTOP-ABPP ratio Q8NBS9_C350,"[4]; 200 μM, insitu, 231",1.3
same,"isoTOP-ABPP ratio, cysteine Q96RP9_C153",[5]; ramos,0.8
same,"isoTOP-ABPP ratio, cysteine Q9NWA0_C139",[6],1.1
same,"isoTOP-ABPP ratio, cysteine Q9Y5Y2_C72","[2]; 200 μM, insitu, ramos",1.5
same,"isoTOP-ABPP ratio, Q02556_C306",IRF8 C306 (Q02556),0.7
same,"isoTOP-ABPP ratio, Q9HB90_C358",RRAGC C358 (Q9HB90),1.5
O=C(CCl)N1CCN(CC(=O)N2CCOCC2)CC1 [compound 29],isoTOP-ABPP ratio P45984_C177,"[3]; 200 μM, insitu, ramos",1.7
same,isoTOP-ABPP ratio Q13158_C98,[1]; ramos,1.3
same,isoTOP-ABPP ratio Q96RP9_C153,[5]; ramos,1.2
same,isoTOP-ABPP ratio Q9NWA0_C139,[6]; ramos,0.7
same,isoTOP-ABPP ratio Q9Y5Y2_C72,"[2]; 200 μM, insitu, ramos",1.1
O=C(CCl)N1CCOCC1 [compound 22],"isoTOP-ABPP ratio (reactivity profile), Q9HB90_C358",RRAGC C358 (Q9HB90); 500 μm in-vitro ramos_231,1.7
CC(Cl)C(=O)Nc1cc(C(F)(F)F)cc(C(F)(F)F)c1 (stereo not drawn) [compound 25],"isoTOP-ABPP ratio (reactivity profile), Q9HB90_C358",RRAGC C358 (Q9HB90); 500 μm in-vitro ramos_231,0.9
CC(Br)C(=O)Nc1cc(C(F)(F)F)cc(C(F)(F)F)c1 (stereo not drawn) [compound 24],"isoTOP-ABPP ratio (reactivity profile), Q02556_C306",IRF8 C306 (Q02556),1.2
same,"isoTOP-ABPP ratio (reactivity profile), Q9HB90_C358",RRAGC C358 (Q9HB90); 500 μm in-vitro ramos,0.9
CNS(=O)(=O)C=Cc1ccc2c(ccn2Cc2ccccc2)c1 [compound 6],"isoTOP-ABPP ratio, Q9HB90_C358",RRAGC C358 (Q9HB90),1.2
O=C(CCl)NC12CC3CC(CC(C3)C1)C2 [compound 21],"isoTOP-ABPP ratio, cysteine Q96RP9_C153",[5]; 231,1.4
same,"isoTOP-ABPP ratio, cysteine Q9NWA0_C139",[6],1.5
same,"isoTOP-ABPP ratio (reactivity profile), Q9HB90_C358",RRAGC C358 (Q9HB90); 500 μm in-vitro ramos_231,1.2
O=C(CCl)N1CCC(Cc2ccccc2)CC1 [compound 9],isoTOP-ABPP reactivity Q8NBS9_C350 TXNDC5,"[4]; 200 μM, insitu, 231",1.7
same,isoTOP-ABPP reactivity Q9Y5Y2_C72 NUBP2,"[2]; 200 μM, insitu, 231",4.0
N#CC(=Cc1ccc(-c2ccccc2Cl)o1)C(N)=O [compound 42],"isoTOP-ABPP reactivity profile ratio, Q02556_C306","IRF8 C306 (Q02556); 500 μm, in-vitro_ramos",0.9
O=C(CCl)N1CCC(C(O)(c2ccccc2)c2ccccc2)CC1 [compound 20],"isoTOP-ABPP ratio (reactivity profile), Q02556_C306",IRF8 C306 (Q02556),2.1
CCN(CC)c1ccc(S(N)(=O)=O)cc1NC(=O)CCl [compound 30],"isoTOP-ABPP reactivity ratio, Q02556_C306","IRF8 C306 (Q02556); 500 μm, in-vitro_ramos",2.0
same,"isoTOP-ABPP ratio (reactivity profile), Q9HB90_C358",RRAGC C358 (Q9HB90); 500 μm in-vitro ramos,1.0
